Results on one compound are retold here after US8518882B2, “Methods and compositions for ameliorating or inhibiting decline in memory or intelligence or improving same” (priority 1998, dated 2013).

Data set [1] deals with CDP-choline levels in the brain. As to the kind of experiment: Brain CDP-choline levels after oral UMP in gerbils. The format is in vivo. The note with it: UMP 1 mmole/kg by gavage, for 30 min, r=0.98, p<0.02. As for the experimental part: Data was pooled from three experiments, with group sizes ranging from 5 to 16 animals. Male gerbils (60-80 g) were given UMP (1 mmole/kg body weight) by gavage and sacrificed at the indicated times. After brain homogenization, protein precipitation, and lyophilization as described for Example 3, samples were analyzed by HPLC-UV.
Brain tissue or cells was dissolved in methanol/chloroform (1:2 vol/vol), centrifuged, and the aqueous phase was dried under vacuum, resuspended in 100-200 μL water and separated by HPLC on an ion-exchange column (Alltech Hypersil APS-2, 5 μM, 250×4.6 mm). CDP-choline was eluted with a linear gradient of NaH2PO4 buffers A (1.75 mM NaH2PO4, pH 2.9) and B (500 mM, pH 4.5), which allowed resolution of CDP-choline from closely co-eluting substances such as UMP over 40 min. The retention time for CDP-choline was 9.5 min. Individual nucleotide peaks were detected by UV absorption at […], and were identified by comparison with the positions of authentic standards, as well as by the addition of nucleotide standards to selected samples.

The next data set relates to neurofilament-70 (NF-70). As to the kind of experiment: Western blot of NF-70 in striatum of aged rats on UMP diet. Format: in vivo. As for the experimental part:
Data were represented according to UMP treatment of six to sixteen measurements each group (means±S.E.M.). One-way ANOVA with Turkey's HSD post hoc tests were used to compare the difference among the treatments the Newman-Keuls multiple range test was used for the data in FIG. 13.
Striatal tissues were placed in Eppendorf tubes containing 200 μl lysis buffer (60 mM Tris-HCl, 4% SDS, 20% glycerol, 1 mM dithiothreitol, 1 mM AEBSF, 8 μM aprotinin, 500 μM bestatin, 15 μM E64, 200 μM leupeptin, 10 μM pepstatin A). The samples were sonicated, boiled (10 min), and centrifuged (14,000 g for 1 min at room temperature) The supernatant fluid was transferred to a clean tube, and total protein content was determined using the Bicinchoninic Acid assay (Sigma, St. Louis, Mo.).
Equal amounts of protein (40 μg protein/lane) were loaded for sodium dodecyl sulfate-polyacrylamide gel electrophoresis (4-15% SDS PAGE; Bio-Rad, Hercules, Calif.). Prior to gel electrophoresis, bromphenol blue solution (0.07%) was added to each sample. Proteins were separated, transferred onto polyvinylidene difluoride (PVDF) membranes (Immobilon-P, Millipore), and blocked with 5% bovine serum albumin (Tris-buffered saline/0.15% Tween 20) for 1 h. After 3 10 min rinses in Tris-buffered saline (TBST), blots were incubated in TBST with various antibodies against the proteins of interest, including NF-70, NF-M (1: 2000, 1: 5000, respectively; Calbiochem, La Jolla, Calif.) at 4° C. overnight on an orbital shaker. […] Films were digitized using a Supervista S-12 scanner with a transparency adapter (UMAX Technologies, Freemont, Calif.). Analysis was performed using the public domain NIH Image program (NIH V.1.61).
(In general: Immunoblotting shows a protein as a band on a membrane.)

Data set [2] in a line: Body weight of EC and IC rats on UMP diet. The note with it: 0.1% UMP-2Na+ diet vs control groups. The format is in vivo, Sprague Dawley rats. As to the method:
Animals were maintained under standard environmental conditions (room temperature, 20-25° C.; relative humidity, 55-60%; light/dark schedule, 12/12). Seven pregnant Sprague Dawley rats (Charles River Laboratories) were obtained 1 wk prior to giving birth. […] At this time, thirty-two rats were matched according to body weight, and assigned to either IC or EC conditions.
Rats were housed in the same rack in plastic cages (52×32×20 cm high) with wire lids. Bedding and water were regularly changed, and animals were weighed each week, at which time general health assessments were made. Animals had ad libitim access to chow and water. EC rats were housed in groups of 2-3 animals Plastic toys (blocks, balls, PVC tubing, etc) placed in the EC cages were rotated between groups weekly; new toys were introduced monthly EC rats were taken to a “playroom” (12×6 ft; containing cabinets, desks, chairs, boxes, and toys) every other day for 45 min. The IC rats were housed individually, without toys, and handled three times per week to acclimatize the animals to experimenter handling and in order to alleviate fear and anxiety in subsequent behavioral training procedures. To avoid the typical weight gain caused by impoverished conditions (relative to enriched rats), IC rats were allowed to exercise three times per week for 15 min in an empty 4×6 ft room with only the experimenter present. […]

On to `O=c1ccn([C@@H]2O[C@H](COP(=O)([O-])[O-])[C@@H](O)[C@H]2O)c(=O)[nH]1.[Na+].[Na+]` [UMP, uridine-5′-monophosphate disodium], for which the “Brain CDP-choline levels” value in data set [1] is given as “rose significantly in a linear fashion”. In addition, the “NF-70 level compared to control group” value with neurofilament-70 (NF-70) (UMP diet 1 week) was “did not increase”. Besides, the “NF-70 level, of control values” in the data set on neurofilament-70 (NF-70) (UMP diet 6 weeks, striatum, p<0.05) is recorded as 182±25%. Moreover, the “NF-70 level in striatum, of control values (second statement)” value in the data set with neurofilament-70 (NF-70) (feeding time not given) came out at 204±36%. The Mean body weights result in data set [2] is listed as “No significant differences”.
